# Assay results published in US11479551B2, “MTA-cooperative PRMT5 inhibitors” (Mirati Therapeutics, Inc., priority 2019, dated 2022).
# Where two headings read alike, the source gives them in different places.
# Biological target: PRMT5/MEP50 complex (Homo sapiens (Human), UniProt O14744)
# Assay: PRMT5:MEP50 FlashPlate Assay (histone H4 peptide substrate, plus and minus MTA)
# Assay type: biochemical
# Description: The PRMT5 inhibitory activity of compounds of the present invention was determined using either a PRMT5:MEP50 FlashPlate Assay (Reaction Biology Corporation) or a PRMT5:MEP50 HotSpot Assay (Reaction Biology Corporation).
# 1. PRMT5:MEP50 FlashPlate Assay
# [1] = IC50 + 2 μM MTA (nM), in the presence of 2 μM MTA
# [2] = in the absence of MTA, read-out: IC50
# PRMT5/MEP50 complex, sequence (O14744 2-637): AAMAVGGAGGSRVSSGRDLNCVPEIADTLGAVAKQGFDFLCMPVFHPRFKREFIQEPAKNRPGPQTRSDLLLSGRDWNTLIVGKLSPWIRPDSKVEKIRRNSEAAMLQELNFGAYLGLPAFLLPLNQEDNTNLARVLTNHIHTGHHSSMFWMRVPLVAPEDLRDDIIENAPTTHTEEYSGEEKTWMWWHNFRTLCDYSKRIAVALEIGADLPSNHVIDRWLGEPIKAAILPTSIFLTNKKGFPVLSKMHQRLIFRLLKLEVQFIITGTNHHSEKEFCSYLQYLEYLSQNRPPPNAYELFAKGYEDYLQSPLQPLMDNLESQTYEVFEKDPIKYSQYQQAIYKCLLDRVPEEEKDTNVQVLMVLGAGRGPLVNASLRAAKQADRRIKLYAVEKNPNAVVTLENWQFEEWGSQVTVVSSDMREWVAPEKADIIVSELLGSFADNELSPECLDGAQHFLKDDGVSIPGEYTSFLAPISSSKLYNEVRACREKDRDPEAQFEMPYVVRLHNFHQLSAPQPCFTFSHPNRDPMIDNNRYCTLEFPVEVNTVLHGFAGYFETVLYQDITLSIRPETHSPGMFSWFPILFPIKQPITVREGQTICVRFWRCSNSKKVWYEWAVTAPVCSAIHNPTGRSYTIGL
# PRMT5/MEP50 complex, sequence (Q9BQA1 2-342 partner): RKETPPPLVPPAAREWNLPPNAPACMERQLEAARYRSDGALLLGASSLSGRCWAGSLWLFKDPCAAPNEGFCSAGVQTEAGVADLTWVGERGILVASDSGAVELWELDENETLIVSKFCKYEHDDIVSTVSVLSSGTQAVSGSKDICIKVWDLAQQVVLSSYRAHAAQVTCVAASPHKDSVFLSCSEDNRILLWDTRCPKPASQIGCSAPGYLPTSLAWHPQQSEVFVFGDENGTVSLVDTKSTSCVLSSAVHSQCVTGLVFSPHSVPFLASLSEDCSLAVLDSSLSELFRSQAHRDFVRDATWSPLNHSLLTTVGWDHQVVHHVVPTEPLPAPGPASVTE
Compound,IC50 [1] [nM],IC50 [2] [nM]
"NCc1n[nH]c(=O)c2ccc(-c3cnc4c(F)cccn34)cc12 [Example 4-22, 4-(aminomethyl)-6-(8-fluoroimidazo[1,2-a]pyridin-3-yl)phthalazin-1(2H)-one]",370,8680
"Cc1nc2cnccn2c1-c1ccc2c(=O)[nH]nc(CN)c2c1 [Example 4-23, 4-(aminomethyl)-6-(2-methylimidazo[1,2-a]pyrazin-3-yl)phthalazin-1(2H)-one]",> 100000,> 100000
"Cc1cn2c(-c3ccc4c(=O)[nH]nc(CN)c4c3)cnc2cn1 [Example 4-24, 4-(aminomethyl)-6-(6-methylimidazo[1,2-a]pyrazin-3-yl)phthalazin-1(2H)-one]",840,13400
"NCc1n[nH]c(=O)c2ccc(-c3cnc4cnccn34)cc12 [Example 4-25, 4-(aminomethyl)-6-(imidazo[1,2-a]pyrazin-3-yl)phthalazin-1(2H)-one]",1700,> 100000
"NCc1n[nH]c(=O)c2ccc(-c3cnc4cccnn34)cc12 [Example 4-26, 4-(aminomethyl)-6-(imidazo[1,2-b]pyridazin-3-yl)phthalazin-1(2H)-one]",130,1730
"NCc1n[nH]c(=O)c2ccc(-c3cnc4c(F)cc(Cl)cn34)cc12 [Example 4-27, 4-(aminomethyl)-6-(6-chloro-8-fluoroimidazo[1,2-a]pyridin-3-yl)phthalazin-1(2H)-one]",1300,> 100000
"NCc1n[nH]c(=O)c2ccc(-c3cnc4cc(Cl)ccn34)cc12 [Example 4-28, 4-(aminomethyl)-6-(7-chloroimidazo[1,2-a]pyridin-3-yl)phthalazin-1(2H)-one]",140,6790
"NCc1n[nH]c(=O)c2ccc(-c3cnc4cc(F)ccn34)cc12 [Example 4-29, 4-(aminomethyl)-6-(7-fluoroimidazo[1,2-a]pyridin-3-yl)phthalazin-1(2H)-one]",190,4030
"Cc1ccn2c(-c3ccc4c(=O)[nH]nc(CN)c4c3)cnc2c1 [Example 4-30, 4-(aminomethyl)-6-(7-methylimidazo[1,2-a]pyridin-3-yl)phthalazin-1(2H)-one]",400,4750
"Cn1ncc(-c2ccc3c(=O)[nH]nc(CN)c3c2)c1C#N [Example 4-31, 4-(4-(aminomethyl)-1-oxo-1,2-dihydrophthalazin-6-yl)-1-methyl-1H-pyrazole-5-carbonitrile]",410,7630
"Cc1nc2ccc(F)cn2c1-c1ccc2c(=O)[nH]nc(CN)c2c1 [Example 4-33, 4-(aminomethyl)-6-(6-fluoro-2-methylimidazo[1,2-a]pyridin-3-yl)phthalazin-1(2H)-one]",> 100000,> 100000
"NCc1n[nH]c(=O)c2ccc(-c3cnc4ccc(Cl)cn34)cc12 [Example 4-34, 4-(aminomethyl)-6-(6-chloroimidazo[1,2-a]pyridin-3-yl)phthalazin-1(2H)-one]",110,2800
"N#Cc1ccn2c(-c3ccc4c(=O)[nH]nc(CN)c4c3)cnc2c1 [Example 4-35, 3-(4-(aminomethyl)-1-oxo-1,2-dihydrophthalazin-6-yl)imidazo[1,2-a]pyridine-7-carbonitrile]",1100,> 100000
"NCc1n[nH]c(=O)c2ccc(-c3cnc4ccc(OC5CC5)cn34)cc12 [Example 4-37, 4-(aminomethyl)-6-(6-cyclopropoxyimidazo[1,2-a]pyridin-3-yl)phthalazin-1(2H)-one]",1.1,213
"NCc1n[nH]c(=O)c2ccc(-c3cnc4ccc(OC(F)(F)F)cn34)cc12 [Example 4-38, 4-(aminomethyl)-6-(6-(trifluoromethoxy)imidazo[1,2-a]pyridin-3-yl)phthalazin-1(2H)-one]",25,850
"NCc1n[nH]c(=O)c2ccc(-c3cnc4ccc(-c5ccccc5)cn34)cc12 [Example 4-39, 4-(aminomethyl)-6-(6-phenylimidazo[1,2-a]pyridin-3-yl)phthalazin-1(2H)-one]",1.7,109
"N#Cc1c[nH]c2ncc(-c3ccc4c(=O)[nH]nc(CN)c4c3)cc12 [Example 4-41, 5-(4-(aminomethyl)-1-oxo-1,2-dihydrophthalazin-6-yl)-1H-pyrrolo[2,3-b]pyridine-3-carbonitrile]",56,4810
"NCc1n[nH]c(=O)c2ccc(-c3cnc4[nH]cc(F)c4c3)cc12 [Example 4-42, 4-(aminomethyl)-6-(3-fluoro-1H-pyrrolo[2,3-b]pyridin-5-yl)phthalazin-1(2H)-one]",45,1380
"NCc1n[nH]c(=O)c2ccc(-c3cnc4[nH]cc(C(F)(F)F)c4c3)cc12 [Example 4-43, 4-(aminomethyl)-6-(3-(trifluoromethyl)-1H-pyrrolo[2,3-b]pyridin-5-yl)phthalazin-1(2H)-one]",32,1520
"COCc1c[nH]c2ncc(-c3ccc4c(=O)[nH]nc(CN)c4c3)cc12 [Example 4-46, 4-(aminomethyl)-6-(3-(methoxymethyl)-1H-pyrrolo[2,3-b]pyridin-5-yl)phthalazin-1(2H)-one]",0.6,329

Compound,IC50 [1] [nM],IC50 [2] [nM]
"NCc1n[nH]c(=O)c2ccc(-c3cnc4[nH]cc(CO)c4c3)cc12 [Example 4-47, 4-(aminomethyl)-6-(3-(hydroxymethyl)-1H-pyrrolo[2,3-b]pyridin-5-yl)phthalazin-1(2H)-one]",19,667
"COc1c(-c2ccc3c(=O)[nH]nc(CN)c3c2)cnn1C [Example 4-48, 4-(aminomethyl)-6-(5-methoxy-1-methyl-1H-pyrazol-4-yl)phthalazin-1(2H)-one]",22,750
"Cn1ncc(-c2ccc3c(=O)[nH]nc(CN)c3c2)c1Cl [Example 4-49, 4-(aminomethyl)-6-(5-chloro-1-methyl-pyrazol-4-yl)-2H-phthalazin-1-one]",300,5930
"NCc1n[nH]c(=O)c2ccc(-c3cncc(Cc4ccccc4)c3)cc12 [Example 4-50, 4-(aminomethyl)-6-(5-benzylpyridin-3-yl)phthalazin-1(2H)-one]",22,456
"NCc1n[nH]c(=O)c2ccc(-c3cncc(S(=O)(=O)c4ccccc4)c3)cc12 [Example 4-52, 4-(aminomethyl)-6-(5-(phenylsulfonyl)pyridin-3-yl)phthalazin-1(2H)-one]",18,669
"CN(C)c1cncc(-c2ccc3c(=O)[nH]nc(CN)c3c2)c1 [Example 4-53, 4-(aminomethyl)-6-(5-(dimethylamino)pyridin-3-yl)phthalazin-1(2H)-one]",55,1140
"NCc1n[nH]c(=O)c2ccc(-c3cnsc3-c3ccccc3)cc12 [Example 4-54, 4-(aminomethyl)-6-(5-phenylisothiazol-4-yl)phthalazin-1(2H)-one]",77,1550
"NCc1n[nH]c(=O)c2ccc(-c3cncc(Sc4ccccc4)c3)cc12 [Example 4-55, 4-(aminomethyl)-6-(5-(phenylthio)pyridin-3-yl)phthalazin-1(2H)-one]",1.2,30
"NCc1n[nH]c(=O)c2ccc(-c3cncc(Sc4cccc(Cl)c4)c3)cc12 [Example 4-56, 4-(aminomethyl)-6-(5-((3-chlorophenyl)thio)pyridin-3-yl)phthalazin-1(2H)-one]",3.8,107
"NCc1n[nH]c(=O)c2ccc(-c3cncc(Sc4ccc(Cl)cc4)c3)cc12 [Example 4-57, 4-(aminomethyl)-6-(5-((4-chlorophenyl)thio)pyridin-3-yl)phthalazin-1(2H)-one]",11,85
"NCc1n[nH]c(=O)c2ccc(-c3cncc(Sc4ccccc4Cl)c3)cc12 [Example 4-58, 4-(aminomethyl)-6-(5-((2-chlorophenyl)thio)pyridin-3-yl)phthalazin-1(2H)-one]",1.8,36
"Cc1ccccc1Sc1cncc(-c2ccc3c(=O)[nH]nc(CN)c3c2)c1 [Example 4-59, 4-(aminomethyl)-6-(5-(o-tolylthio)pyridin-3-yl)phthalazin-1(2H)-one]",2.1,68
"Cc1ccc(Sc2cncc(-c3ccc4c(=O)[nH]nc(CN)c4c3)c2)cc1 [Example 4-60, 4-(aminomethyl)-6-(5-(p-tolylthio)pyridin-3-yl)phthalazin-1(2H)-one]",2.3,117
"Cc1cccc(Sc2cncc(-c3ccc4c(=O)[nH]nc(CN)c4c3)c2)c1 [Example 4-61, 4-(aminomethyl)-6-(5-(m-tolylthio)pyridin-3-yl)phthalazin-1(2H)-one]",3,149
"NCc1n[nH]c(=O)c2ccc(-c3cncc(Oc4cccnc4)c3)cc12 [Example 4-62, 4-(aminomethyl)-6-(5-(pyridin-3-yloxy)pyridin-3-yl)phthalazin-1(2H)-one]",120,2230
"NCc1n[nH]c(=O)c2ccc(-c3cncc(Oc4ccccn4)c3)cc12 [Example 4-63, 4-(aminomethyl)-6-(5-(pyridin-2-yloxy)pyridin-3-yl)phthalazin-1(2H)-one]",58,1380
"NCc1n[nH]c(=O)c2ccc(-c3cncc(Oc4ncccn4)c3)cc12 [Example 4-64, 4-(aminomethyl)-6-(5-(pyrimidin-2-yloxy)pyridin-3-yl)phthalazin-1(2H)-one]",230,4110
"NCc1n[nH]c(=O)c2ccc(-c3cncc(Oc4cccc(F)c4)c3)cc12 [Example 4-65, 4-(aminomethyl)-6-(5-(3-fluorophenoxy)pyridin-3-yl)phthalazin-1(2H)-one]",16,517
"COc1cccc(Oc2cncc(-c3ccc4c(=O)[nH]nc(CN)c4c3)c2)c1 [Example 4-68, 4-(aminomethyl)-6-(5-(3-methoxyphenoxy)pyridin-3-yl)phthalazin-1(2H)-one]",10,243
